Laboratory results taken from patent US20210318306A1, “Compositions for and Methods of Neutralizing Lipopolysaccharide Toxicity and Methods of Identifying the Same” (priority 2020, published 2021).
Values joined by “and” are separate entries in the source; they are usually repeats but may differ in a detail not shown here. Equal entries are not always repeated.

Test system: HEK-TLR4 cells
Assay: P. gingivalis LPS-induced cytokine secretion by HEK-TLR4 cells, Luminex 5-plex magnetic bead panel (Example 2)
Type: cell-based, human
Protocol: Commercially available HEK-Blue TLR4 cells (Invitrogen) are recombinant HEK 293 cells that have been transformed with DNA that encodes TLR4 that is expressed and present on the cell surface. HEK-Blue TLR4 cells are grown ion culture and used can be used in experimental assays to identify test compositions that modulate inflammation pathways stimulated by TLR4-LPS interaction.
Initial for LPS and zinc-containing starting solutions were made as follows. An LPS starting solution was prepared as follows: a […] solution of LPS was prepared using 2 μl of 1 mg/ml LPS and 10 ml media. Multiple zinc starting solutions were each prepared using media as diluent: a) 20 mM zinc oxide, b) 2 mM zinc oxide, c) 20 mM zinc citrate, d) 2 mM zinc citrate, e) 20 mM of a composition containing a 2:1 mixture of zinc oxide and zinc citrate and f) 2 mM of a composition containing a 2:1 mixture of zinc oxide and zinc citrate. The starting solutions were used to prepare various test samples.
In some embodiments, control assays include “Untreated”, in which eight Zinc test samples without LPS were made: […], 10 mM zinc oxide+zinc citrate, 1 mM zinc oxide+zinc citrate, 10 mM zinc oxide+zinc citrate+arginine and 1 mM zinc oxide+zinc citrate+arginine, The test samples without LPS were prepared by diluting the zinc starting solutions with equal parts media. Eight test samples with LPS were made: […], […], […], […], 10 mM zinc oxide+zinc citrate LPS, 1 mM zinc oxide+zinc citrate LPS, 10 mM zinc oxide+zinc citrate+arginine LPS and 1 mM zinc oxide+zinc citrate+arginine LPS. The test samples with LPS were prepared by diluting the zinc starting solutions with equal parts LPS starting solution.
Cells were grown to 70-80% confluent in a 96 well plate. 100 uL of a test sample was added to a well. Cells with test sample were incubated overnight. Media was collected from each well and transferred to a corresponding well in a 96-well plate. Assays to measure proinflammatory cytokines including IL-8 secretion were performed for each well.
Inflammation markers in supernatants collected from HEK-Blue cells co-incubated with Zinc and Zinc+LPS were quantified using Luminex Magpix instrument (MAGPIX-XPON42) and human 5-plex cytokine/chemokine Magnetic bead panel (Millipore HCYTOMAG-60K). The human 5-plex cytokine/chemokine Magnetic bead panel quantifies TNF-α, IL-6, IL-8, IL-1β and GM-CSF.
The Luminex Kit Procedure outlined in the instruction manual for each separate Luminex kit was performed on the supernatants collected from the HEK-Blue cells co-incubated with Zinc test solutions without LPS and Zinc test solutions plus LPS. Quality controls in range for the specified analytes were performed to ensure levels were within the acceptable range.
To run the Luminex Test, all necessary calibration and verification procedures as outlined by the MagPix and xPonent softwares were completed and the appropriate protocol for the assay was selected. The standards were verified to be correct and complete the plate layout of samples was verified. […] The “Avg. Result” was identified in the results generated.
Experiments were conducted to identify compositions that inhibit P. gingivalis LPS-induced IL-8, TNFα, GM-CSF, IL-1β and IL-6 by HEK-TLR4 cells. HEK-TLR4 cells in 96 well plates were contacted with 100 μl samples. IL-8, TNFα, GM-CSF, IL-1β and IL-6 were detected as described above.

[1] = 300 ppm with 0.1μ/ml P. gingivalis LPS
[2] = 600 ppm with 0.1μ/ml P. gingivalis LPS

## [O]=[Zn] [ZnO, zinc oxide]
[1]
  GM-CSF (raw data, single replicate): 0.5501 pg/ml (2×) and 0.633 pg/ml and 1.577 pg/ml
  IL-1β (raw data, single replicate): 6.491 pg/ml (2×) and 5.944 pg/ml and 6.674 pg/ml
  IL-6 (raw data, single replicate): 3.316 pg/mL and 3.775 pg/mL and 3.171 pg/mL and 4.174 pg/mL
  IL-8 (average result): 24200.24439257880 pg/mL
  IL-8 (raw data, single replicate): 31890.081340469700 pg/mL and 39006.703793117100 pg/mL and 13910.330133842900 pg/mL and 11993.862302885500 pg/mL
  TNF-α (average result): 42.3 pg/mL
  TNFα (raw data, single replicate): 41.56 pg/mL and 39.8 pg/mL and 38.16 pg/mL and 49.7 pg/mL
300 ppm, without LPS
  GM-CSF (raw data, single replicate): <3.2 pg/ml (2×) and 0.3057 pg/ml and 0.5501 pg/ml
  IL-1β (raw data, single replicate): 0.4614 pg/ml (2×) and 0.8647 pg/ml and 1.507 pg/ml
  IL-6 (raw data, single replicate): 0.4605 pg/mL and 0.6587 pg/mL and 0.9797 pg/mL and 1.293 pg/mL
  IL-8 (average result): 452.8 pg/mL
  IL-8 (raw data, single replicate): 340.2 pg/mL and 393.1 pg/mL and 458.8 pg/mL and 619.1 pg/mL
  TNF-α (average result): 1.202 pg/mL
  TNFα (raw data, single replicate): 0.9029 pg/mL and 1.031 pg/mL and 1.244 pg/mL and 1.631 pg/mL
[2]
  GM-CSF (raw data, single replicate): 1.142 pg/mL and 1.315 pg/mL and 0.3863 pg/mL and 0.3057 pg/mL
  IL-1β (raw data, single replicate): 6.735 pg/mL and 6.309 pg/mL and 6.035 pg/mL and 5.701 pg/mL
  IL-6 (raw data, single replicate): 2.617 pg/mL and 2.44 pg/mL and 1.782 pg/mL and 2.023 pg/mL
  IL-8 (average result): 17453.90185032290 pg/mL
  IL-8 (raw data, single replicate): 21030.114488079100 pg/mL and 14514.694724312700 pg/mL and 20392.976523123200 pg/mL and 13877.821665776500 pg/mL
  TNF-α (average result): 26.47 pg/mL
  TNFα (raw data, single replicate): 43.99 pg/mL and 24.75 pg/mL and 19.13 pg/mL and 18.02 pg/mL
600 ppm, without LPS
  GM-CSF (raw data, single replicate): 0.8854 pg/ml and 0.2263 pg/ml and 0.001671 pg/ml (2×)
  IL-1β (raw data, single replicate): 2.871 pg/mL and 1.039 pg/mL and 0.4329 pg/mL and 0.4044 pg/mL
  IL-6 (raw data, single replicate): 1.011 pg/ml and 0.3248 pg/ml and <3.2 pg/ml (2×)
  IL-8 (average result): 558.8 pg/mL
